# In ChEMBL document CHEMBL1201861, “Genomics of Drug Sensitity in Cancer screening data, Wellcome Trust Sanger Institute”:
# What was measured:
# Assay in all cases: cells
# CP50-MEL-B = type: functional, cell-based, Homo sapiens; conditions: Homo sapiens, CP50-MEL-B;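 further: growth inhibition of the human cell line, measured with a cell viability read-out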
# Description: SANGER: Inhibition of human CP50-MEL-B cell growth in a cell viability assay.
# Calu-6 = type: functional, cell-based, Homo sapiens; conditions: Homo sapiens, Calu-6;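 further: growth of human Calu-6 cells, read out by a cell viability assay, IC50 marking inhibition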
# Description: SANGER: Inhibition of human Calu-6 cell growth in a cell viability assay.
# FTC-133 = type: functional, cell-based, Homo sapiens; conditions: Homo sapiens, FTC-133
# HPAF-II = type: functional, cell-based, Homo sapiens; conditions: Homo sapiens, HPAF-II;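 further: growth inhibition of HPAF-II cells, read out with a cell viability assay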
# Description: SANGER: Inhibition of human HPAF-II cell growth in a cell viability assay.
# HSC-2 = type: functional, cell-based, Homo sapiens; conditions: Homo sapiens, HSC-2;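 further: growth inhibition of human HSC-2 cells, read out by a cell viability assay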
# Description: SANGER: Inhibition of human HSC-2 cell growth in a cell viability assay.
# HT = type: functional, cell-based; conditions: Homo sapiens
# Description: SANGER: Inhibition of human HT cell growth in a cell viability assay.
# HT-144 = type: functional, cell-based, Homo sapiens; conditions: Homo sapiens, HT-144
# Description: SANGER: Inhibition of human HT-144 cell growth in a cell viability assay.
# J-RT3-T3-5 = type: functional, cell-based; conditions: Homo sapiens;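 further: cell viability assay measuring growth inhibition of human J-RT3-T3-5 cells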
# Description: SANGER: Inhibition of human J-RT3-T3-5 cell growth in a cell viability assay.
# JEG-3 = type: functional, cell-based, Homo sapiens; conditions: Homo sapiens, JEG-3;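 further: growth inhibition of human JEG-3 cells, read out with a cell viability assay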
# Description: SANGER: Inhibition of human JEG-3 cell growth in a cell viability assay.
# KYSE-180 = type: functional, cell-based, Homo sapiens; conditions: Homo sapiens, KYSE-180;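 further: growth inhibition of KYSE-180 cells, read out with a cell viability assay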
# Description: SANGER: Inhibition of human KYSE-180 cell growth in a cell viability assay.
# LCLC-97TM1 = type: functional, cell-based, Homo sapiens; conditions: Homo sapiens, LCLC-97TM1;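 further: cell viability assay measuring growth inhibition of human LCLC-97TM1 cells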
# Description: SANGER: Inhibition of human LCLC-97TM1 cell growth in a cell viability assay.
# LXF-289 cell line = type: functional, cell-based, Homo sapiens; conditions: Homo sapiens, LXF-289
# Description: SANGER: Inhibition of human LXF-289 cell growth in a cell viability assay.
# ME-180 = type: functional, cell-based; conditions: Homo sapiens;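 further: cell viability assay measuring growth inhibition of ME-180 cells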
# Description: SANGER: Inhibition of human ME-180 cell growth in a cell viability assay.
# MFE-280 = type: functional, cell-based, Homo sapiens; conditions: Homo sapiens, MFE-280;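 further: growth inhibition of MFE-280 cells, determined with a cell viability readout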
# Description: SANGER: Inhibition of human MFE-280 cell growth in a cell viability assay.
# MHH-NB-11 = type: functional, cell-based, Homo sapiens; conditions: Homo sapiens, MHH-NB-11;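 further: growth inhibition of human MHH-NB-11 cells, read out by a cell viability assay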
# Description: SANGER: Inhibition of human MHH-NB-11 cell growth in a cell viability assay.
# MOLT-16 = type: functional, cell-based; conditions: Homo sapiens;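 further: growth inhibition of human MOLT-16 cells, read out with a cell viability assay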
# Description: SANGER: Inhibition of human MOLT-16 cell growth in a cell viability assay.
# MPP-89 = type: functional, cell-based, Homo sapiens; conditions: Homo sapiens, MPP-89;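 further: growth inhibition of human MPP-89 cells, read out with a cell viability assay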
# Description: SANGER: Inhibition of human MPP-89 cell growth in a cell viability assay.
# MS-1 = type: functional, cell-based; conditions: Homo sapiens;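 further: growth inhibition of MS-1 cells, read out by cell viability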
# Description: SANGER: Inhibition of human MS-1 cell growth in a cell viability assay.
# MSTO-211H = type: functional, cell-based, Homo sapiens; conditions: Homo sapiens, MSTO-211H
# Description: SANGER: Inhibition of human MSTO-211H cell growth in a cell viability assay.
# MZ2-MEL = type: functional, cell-based, Homo sapiens; conditions: Homo sapiens, MZ2-MEL;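 further: growth inhibition of MZ2-MEL cells read out with a cell viability assay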
# Description: SANGER: Inhibition of human MZ2-MEL cell growth in a cell viability assay.
# NCI-H1092 = type: functional, cell-based; conditions: Homo sapiens;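 further: cell growth inhibition measured with a cell viability assay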
# Description: SANGER: Inhibition of human NCI-H1092 cell growth in a cell viability assay.
# NCI-H1355 = type: functional, cell-based, Homo sapiens; conditions: Homo sapiens, NCI-H1355;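 further: growth inhibition of human NCI-H1355 cells, read out by a cell viability assay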
# Description: SANGER: Inhibition of human NCI-H1355 cell growth in a cell viability assay.
# NCI-H1838 = type: functional, cell-based, Homo sapiens; conditions: Homo sapiens, NCI-H1838;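 further: growth inhibition of NCI-H1838 cells, determined with a cell viability readout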
# Description: SANGER: Inhibition of human NCI-H1838 cell growth in a cell viability assay.
# NCI-H2170 = type: functional, cell-based, Homo sapiens; conditions: Homo sapiens, NCI-H2170;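 further: cell viability assay measuring growth inhibition of human NCI-H2170 cancer cells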
# Description: SANGER: Inhibition of human NCI-H2170 cell growth in a cell viability assay.
# NCI-H650 = type: functional, cell-based, Homo sapiens; conditions: Homo sapiens, NCI-H650;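 further: growth inhibition of NCI-H650 cells, read out by a viability assay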
# Description: SANGER: Inhibition of human NCI-H650 cell growth in a cell viability assay.
# NKM-1 = type: functional, cell-based; conditions: Homo sapiens;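 further: growth inhibition of NKM-1 cells, read out with a cell viability assay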
# Description: SANGER: Inhibition of human NKM-1 cell growth in a cell viability assay.
# NOMO-1 = type: functional, cell-based; conditions: Homo sapiens;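 further: growth inhibition of human NOMO-1 cells measured by a cell viability assay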
# Description: SANGER: Inhibition of human NOMO-1 cell growth in a cell viability assay.
# NUGC-3 = type: functional, cell-based, Homo sapiens; conditions: Homo sapiens, NUGC-3;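 further: growth inhibition of human NUGC-3 cells, read out with a cell viability assay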
# Description: SANGER: Inhibition of human NUGC-3 cell growth in a cell viability assay.
# OVCAR-5 = type: functional, cell-based, Homo sapiens; conditions: Homo sapiens, OVCAR-5;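 further: growth inhibition of human OVCAR-5 cells, read out with a cell viability assay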
# Description: SANGER: Inhibition of human OVCAR-5 cell growth in a cell viability assay.
# RPMI-8866 = type: functional, cell-based; conditions: Homo sapiens
# Description: SANGER: Inhibition of human RPMI-8866 cell growth in a cell viability assay.
# SCC-15 = type: functional, cell-based, Homo sapiens; conditions: Homo sapiens, SCC-15;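 further: growth inhibition of SCC-15 cells, read out with a cell viability assay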
# Description: SANGER: Inhibition of human SCC-15 cell growth in a cell viability assay.
# SCH = type: functional, cell-based, Homo sapiens; conditions: Homo sapiens, SCH;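 further: growth inhibition of human SCH cells, read out in a cell viability assay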
# Description: SANGER: Inhibition of human SCH cell growth in a cell viability assay.
# SF-539 = type: functional, cell-based, Homo sapiens; conditions: Homo sapiens, SF-539;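 further: Read-out is a cell viability assay, with IC50 reflecting inhibition of cell growth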
# Description: SANGER: Inhibition of human SF539 cell growth in a cell viability assay.
# SK-UT-1 = type: functional, cell-based, Homo sapiens; conditions: Homo sapiens, SK-UT-1;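 further: growth inhibition of SK-UT-1 cells, measured by a cell viability assay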
# Description: SANGER: Inhibition of human SK-UT-1 cell growth in a cell viability assay.
# SW1088 = type: functional, cell-based, Homo sapiens; conditions: Homo sapiens, SW1088;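 further: growth inhibition of human SW1088 cells, read out by a cell viability assay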
# Description: SANGER: Inhibition of human SW1088 cell growth in a cell viability assay.
# SW684 = type: functional, cell-based, Homo sapiens; conditions: Homo sapiens, SW684;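 further: growth inhibition of human SW684 cells, measured by a cell viability assay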
# Description: SANGER: Inhibition of human SW684 cell growth in a cell viability assay.
# SAOS-2 = type: functional, cell-based, Homo sapiens; conditions: Homo sapiens, SAOS-2;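 further: growth inhibition of human Saos-2 cells determined by a cell viability assay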
# Description: SANGER: Inhibition of human Saos-2 cell growth in a cell viability assay.
# TCC-SUP = type: functional, cell-based, Homo sapiens; conditions: Homo sapiens, TCC-SUP;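 further: growth inhibition of TCC-SUP cells, read out with a cell viability assay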
# Description: SANGER: Inhibition of human TCCSUP cell growth in a cell viability assay.
# 769-P = type: functional, cell-based, Homo sapiens; conditions: Homo sapiens, 769-P
# Description: SANGER: Inhibition of human 769-P cell growth in a cell viability assay.
# A253 cell line = type: functional, cell-based, Homo sapiens; conditions: Homo sapiens, A253;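 further: growth inhibition of A253 cells, read out with a cell viability assay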
# Description: SANGER: Inhibition of human A253 cell growth in a cell viability assay.
# BPH-1 = type: functional, cell-based, Homo sapiens; conditions: Homo sapiens, BPH-1;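 further: cell viability assay measuring growth inhibition of human BPH-1 cells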
# Description: SANGER: Inhibition of human BPH-1 cell growth in a cell viability assay.
# BT-20 = type: functional, cell-based, Homo sapiens; conditions: Homo sapiens, BT-20;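 further: cell viability assay measuring suppression of growth in human BT-20 cells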
# Description: SANGER: Inhibition of human BT-20 cell growth in a cell viability assay.
# BXPC-3 = type: functional, cell-based, Homo sapiens; conditions: Homo sapiens, BXPC-3;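 further: growth inhibition of human BxPC-3 cells, read out by a cell viability assay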
# Description: SANGER: Inhibition of human BxPC-3 cell growth in a cell viability assay.
# CAL-54 = type: functional, cell-based, Homo sapiens; conditions: Homo sapiens, CAL-54;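 further: growth inhibition of CAL-54 cells, read out by a viability measurement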
# Description: SANGER: Inhibition of human CAL-54 cell growth in a cell viability assay.
# TE-5 = type: functional, cell-based, Homo sapiens; conditions: Homo sapiens, TE-5;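 further: inhibition of cell growth, read out by a cell viability assay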
# Description: SANGER: Inhibition of human TE-5 cell growth in a cell viability assay.
# TE-6 = type: functional, cell-based, Homo sapiens; conditions: Homo sapiens, TE-6;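 further: growth inhibition of TE-6 cells, read out with a cell viability assay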
# Description: SANGER: Inhibition of human TE-6 cell growth in a cell viability assay.
# TGBC1TKB = type: functional, cell-based, Homo sapiens; conditions: Homo sapiens, TGBC1TKB;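 further: growth inhibition of TGBC1TKB cells, read out by a cell viability assay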
# Description: SANGER: Inhibition of human TGBC1TKB cell growth in a cell viability assay.
# U-251 = type: functional, cell-based, Homo sapiens; conditions: Homo sapiens, U-251;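 further: growth inhibition of human U-251 cells, read out through a cell viability assay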
# Description: SANGER: Inhibition of human U251 cell growth in a cell viability assay.
# VMRC-RCZ = type: functional, cell-based; conditions: Homo sapiens;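 further: growth inhibition measured with a cell viability assay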
# Description: SANGER: Inhibition of human VMRC-RCZ cell growth in a cell viability assay.
# YAPC = type: functional, cell-based, Homo sapiens; conditions: Homo sapiens, YAPC;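 further: growth inhibition of YAPC cells, measured with a cell viability assay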
# Description: SANGER: Inhibition of human YAPC cell growth in a cell viability assay.
# CAPAN-1 = type: functional, cell-based, Homo sapiens; conditions: Homo sapiens, CAPAN-1;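 further: growth suppression of CAPAN-1 cells, read out by a cell viability assay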
# Description: SANGER: Inhibition of human CAPAN-1 cell growth in a cell viability assay.
compound,measurement,setting,value
COC(=O)CNC(=O)C(=O)OC,IC50,CP50-MEL-B,> 4000 µM
same,IC50,Calu-6,732 µM
same,IC50,FTC-133,> 4000 µM
same,IC50,HPAF-II,998 µM
same,IC50,HSC-2,504 µM
same,IC50,HT,132 µM
same,IC50,HT-144,177 µM
same,IC50,J-RT3-T3-5,1740 µM
same,IC50,JEG-3,908 µM
same,IC50,KYSE-180,> 4000 µM
same,IC50,LCLC-97TM1,200 µM
same,IC50,LXF-289 cell line,260 µM
same,IC50,ME-180,257 µM
same,IC50,MFE-280,1030 µM
same,IC50,MHH-NB-11,> 4000 µM
same,IC50,MOLT-16,127 µM
same,IC50,MPP-89,1280 µM
same,IC50,MS-1,878 µM
same,IC50,MSTO-211H,> 4000 µM
same,IC50,MZ2-MEL,478 µM
same,IC50,NCI-H1092,1200 µM
same,IC50,NCI-H1355,274 µM
same,IC50,NCI-H1838,> 4000 µM
same,IC50,NCI-H2170,> 4000 µM
same,IC50,NCI-H650,269 µM
same,IC50,NKM-1,126 µM
same,IC50,NOMO-1,154 µM
same,IC50,NUGC-3,1480 µM
same,IC50,OVCAR-5,458 µM
same,IC50,RPMI-8866,> 4000 µM
same,IC50,SCC-15,1030 µM
same,IC50,SCH,> 4000 µM
same,IC50,SF-539,310 µM
same,IC50,SK-UT-1,1050 µM
same,IC50,SW1088,2720 µM
same,IC50,SW684,2470 µM
same,IC50,SAOS-2,193 µM
same,IC50,TCC-SUP,432 µM
same,IC50,769-P,> 4000 µM
same,IC50,A253 cell line,232 µM
same,IC50,BPH-1,276 µM
same,IC50,BT-20,947 µM
same,IC50,BXPC-3,639 µM
same,IC50,CAL-54,1250 µM
same,IC50,TE-5,1080 µM
same,IC50,TE-6,1360 µM
same,IC50,TGBC1TKB,1790 µM
same,IC50,U-251,215 µM
same,IC50,VMRC-RCZ,1960 µM
same,IC50,YAPC,> 4000 µM
same,IC50,CAPAN-1,101 µM
COc1cc([C@@H]2c3cc4c(cc3[C@@H](O[C@@H]3O[C@@H]5CO[C@@H](C)O[C@H]5[C@H](O)[C@H]3O)[C@H]3COC(=O)[C@H]23)OCO4)cc(OC)c1O [ETOPOSIDE],IC50,CP50-MEL-B,> 16 µM
same,IC50,Calu-6,4.06 µM
same,IC50,FTC-133,3.59 µM
same,IC50,HPAF-II,> 16 µM
same,IC50,HSC-2,0.706 µM
same,IC50,HT,15.3 µM
same,IC50,HT-144,0.0201 µM
same,IC50,J-RT3-T3-5,1.59 µM
same,IC50,JEG-3,3.04 µM
same,IC50,KYSE-180,2.07 µM
same,IC50,LCLC-97TM1,0.766 µM
same,IC50,LXF-289 cell line,2.08 µM
same,IC50,ME-180,0.824 µM
same,IC50,MFE-280,> 16 µM
same,IC50,MHH-NB-11,0.524 µM
same,IC50,MOLT-16,12.5 µM
same,IC50,MPP-89,> 16 µM
same,IC50,MS-1,5.64 µM
same,IC50,MSTO-211H,> 16 µM
same,IC50,MZ2-MEL,2.18 µM
same,IC50,NCI-H1092,> 16 µM
same,IC50,NCI-H1355,0.39 µM
same,IC50,NCI-H1838,> 16 µM
same,IC50,NCI-H2170,1.85 µM
same,IC50,NCI-H650,1.71 µM
same,IC50,NKM-1,0.425 µM
same,IC50,NOMO-1,2.19 µM
same,IC50,NUGC-3,0.981 µM
same,IC50,OVCAR-5,1.54 µM
same,IC50,RPMI-8866,4.65 µM
same,IC50,SCC-15,13.1 µM
same,IC50,SCH,> 16 µM
same,IC50,SF-539,1.61 µM
same,IC50,SK-UT-1,0.0424 µM
same,IC50,SW1088,> 16 µM
same,IC50,SW684,> 16 µM
same,IC50,SAOS-2,> 16 µM
same,IC50,TCC-SUP,11.6 µM
same,IC50,769-P,2.26 µM
same,IC50,A253 cell line,0.0184 µM
same,IC50,BPH-1,0.943 µM
same,IC50,BT-20,4.58 µM
same,IC50,BXPC-3,> 16 µM
same,IC50,CAL-54,8.92 µM
same,IC50,TE-5,1.18 µM
same,IC50,TE-6,> 16 µM
same,IC50,TGBC1TKB,> 16 µM
same,IC50,U-251,0.501 µM
same,IC50,VMRC-RCZ,1.97 µM
same,IC50,YAPC,> 16 µM
same,IC50,CAPAN-1,1.25 µM
